Laboratory results taken from patent US20090042783A1, “APO E ANALOGS AND METHODS FOR THEIR USE” (priority 2004, published 2009).
Read-outs that look alike come from different tables or passages of the source. No end group written: not given here.

Key:
mice = test: Maximum tolerated dose, tail vein injection; details: mouse, in vivo
Experimental: Candidate compounds are then be screened in our closed head injury model of traumatic brain injury by intravenous dosing at 30 minutes post injury. Novel compounds are initially tested at one half their maximum tolerated dose (0.5×MTD). The maximum tolerated dose (MTD) is the dose of peptide given in a tail vein injection that results in no death of mice. Death is defined as a complete lack of breathing and complete unresponsiveness to external stimuli such as tail pinch and/or toe pinch for a period of 10 or more minutes. Animals are given an initial dose of 1 mg/kg of peptide analog or non-peptide mimetic and observed continuously for 15 minutes and then at 15 minute intervals for 2 hours and then at 1 hour intervals for 4 hours more. Animals are also observed at 24 hours post injection.
The maximum tolerated dose is the maximum dose at which no animals die at any of these observation times. As an example of this procedure, the MTD is determined empirically by initially dosing groups of 3 mice at 1 mg/kg. If this dose is tolerated, then another group of 3 mice is dosed at 3 mg/kg. If this dose is tolerated, then another group of 3 mice is dosed at 9 mg/kg, etc. If, for example, 9 mg/kg is not tolerated because 1 or more animal died, then doses in-between 3 mg/kg and 9 mg/kg are investigated until the MTD is found. Once the MTD is empirically determined, it is confirmed in another group of 7 mice for a total of 10 mice being tested at the MTD and all of which must not die to confirm that this is the MTD.

in vivo = details: male, C57B1/6, mouse, 0.4 mg/kg
BV2 microglial cells = test system: BV2 microglial cells
Experimental: For suppression of inflammation profiling, each peptide analog was tested at a final concentration of 0.1, […], 1, 3, 5, 10 and 25 μM in an LPS induced BV2 microglial cell release of NO and/or TNFα. […] The modification was a biotin label on the apoE peptide (biotin-[…]-amide) which allows detection with ^125I-streptavidin (ISA, Amersham).
In overview, BV-2 cells are plated in 96 well plates in complete media and then the media is replaced the next day with serum free media or reduced serum (1%) media. […] Each concentration of peptide (standard initial concentrations are 0.1, 0.5, 1, 3, 10 and 25 μM) is added to at least 6 wells of cells (e.g. 6 wells get 0.1 μM peptide, 6 wells get 0.5 μM peptide, etc.) and data are averaged from all 6 wells. […] (2001). Cell viability is also measured with an MTT assay (Laskowitz et al. 2001).

[1] = test system: C57BL/6J mice with MOG-induced EAE; test: MOG-induced experimental autoimmune encephalomyelitis (EAE); details: preliminary data
Experimental: EAE was induced in mice following the method of Feinstein et al. (Feinstein, Galea, et al. 2002) 1) two s.c. injections, one on each flank of the hind legs with 300 μg MOG35-55 peptide in 0.1 ml PBS emulsified in an equal volume of CFA containing 5 mg/ml of Mycobacterium tuberculosis H37RA (Difco, St. Louis, Mo.) were given on Day 0.2) Pertussis toxin (200 ng per mouse in 0.1 ml PBS) was given i.p. immediately and 48 h after first MOG injection. 3) a booster immunization with an identical emulsion, route of administration and location was given on Day 7.
Following the encephalitogenic challenge, mice were monitored daily and neurological impairment was evaluated by clinical score (C.S.) as follows: 0, no clinical signs of EAE; 1, limp tail; 2, flaccid tail and abnormal gait (ataxia and/or paresis of hind limbs); 3, severe hind limb paresis; 4, complete paralysis with hind body; and 5, moribund or death.
Mice were anesthetized, bled, and perfused with 25 ml PBS and 25 ml 4% paraformaldehyde in buffered PBS. Brains and spinal cords were dissected out from 3 mice with a clinical score of 0 and another 3 mice with a clinical score of 4 on day 30 post-immunization. Tissues were post-fixed in 4% paraformaldehyde for another 24 h and then stored in 1×PBS with 0.1% sodium azide. Fixed tissues were embedded in paraffin and 5 μm thick sections were cut from brain, the brain stem and three different levels of spinal cord (cervical, thoracic and lumbar). Sections were stained with hematoxylin/eosin for evidence of inflammation and Luxol fast blue (for demyelination). The severity of inflammation was evaluated using the following criteria: 0, no inflammation; 1, cellular infiltrates only in the perivascular areas and meninges; 2, mild cellular infiltrates only in parenchyma (1-10/section); 3, moderate cellular infiltrates in parenchyma (11-100/section); 4, marked cellular infiltrates in parenchyma (>100 section).
In total, 10 doses of peptides were given.

[2] = test system: BV2 murine microglial cells
Experimental: For Applicants preliminary work, the two most common PTDs, TAT and penetratin, were used.
Cell Culture: BV-2, a well-characterized murine microglial cell line (Bochinni, 1992), is cultured in high glucose content DMEM supplemented with 1% penicillin/streptomycin, 10% fetal calf serum, 1% nonessential amino acids, and 1% sodium pyruvate. Cells are grown to confluency; trypsinized; spun down; resuspended in serum-free OptiMEM containing 1% N2 supplement, 1% penicillin/streptomycin, 1% nonessential amino acids, and 1% sodium pyruvate; and plated at a concentration of 20,000 cells/well to remove any nonadherent cells and serum.
Supernatant is collected 24 and/or 48 h after LPS stimulation and assayed for nitrite.
Quantification of Nitric Oxide (NO): Accumulation of nitrite (stable end product of NO production) in the medium is measured by colometric Griess reagent system (Promega); the absorbance is determined at 540 nm.
Cell Viability Assay: Cell viability is measured using a nonradioactive cell viability assay (cell titer 96 AQ, Promega). The assay measures the bioreduction of MTS (3-(4,5-dimethylthiazole-2-)-5-(3-carboxymethoxyphenyl)-2-(4-sulfophenyl)-2H-tetrazolium by viable cells into formazan. The absorbance of the calorimetric assay is measured at λ 490 nm. Viability is assessed and used to normalize the nitrite data.

peritoneal macrophages = test: Peritoneal macrophage production of NO, TNFα and IL-6 induced by MOG or LPS/IFN-γ; assay type: cell-based, mouse
Experimental: For this purpose, three mice with clinical scores of 0 and three with clinical scores of 4 at 30 dpi (day post-immunization) were used for preparation of peritoneal macrophage cultures. Macrophages were collected after peritoneal lavage with 3 ml heparin (10 U/ml)-containing PBS and then seeded to 96-well microplates at a density of 1×10^5 cells/well in Dulbecco's MEM containing 10% fetal bovine serum, 2 mM L-glutamine serum, 1% HEPES and 100 U/ml penicillin and 100 μg/ml streptomycin, 37° C. in a humidified incubator with 5% CO2. 24 h later, the serum-containing medium was removed and cells were washed once with serum-free medium. To examine the differentiated response of macrophage to immune stimulators, macrophages obtained from mice with clinical scores of 0 or 4 were exposed to serial concentrations of IFN-γ/LPS or MOG35-55 peptide. […] Media were collected at 45 h or 72 h, and analyzed by ELISA for […] and IL-6 or for nitric oxide (NO) as detailed below.
As the stable end product of nitric oxide release, nitrite levels in conditioned media were determined by injecting 50 μl media sample into a Sievers 280 NOA analyzer (Boulder, Colo., USA). Total protein (μg/well) was measured using the BCA method (Pierce, Rockford, Ill., USA) according to manufacturer's instructions with BSA as standard. BCA values were measured using a Molecular Devices Thermomax Microplate Reader (Menlo Park, Calif., USA) at OD562. Nitric oxide levels ere expressed as μM NO2—/mg protein.
For cytokine assays, supernatants were collected 45 h after […]/LPS or MOG treatments and quantitative ELISAs using selected pairs of monoclonal antibodies (as recommended by the manufacturer Biosource) were performed to quantify the cytokines, TNF-α and IL-6. For TNF-α ELISA, 96-well ELISA plates were pre-coated with rabbit anti-mouse polyclonal to TNF-α as capture antibodies for 18 h at 2-8° C. and then blocked for 2 h at room temperature. The wells were incubated with samples or mouse TNF-α standards. Following incubation for 2 h at room temperature, the wells were washed, after which hamster anti-mouse TNF-α biotinylated secondary antibody and horseradish peroxidase conjugate were added. Tetramethylbenzidine (TMB) solution was then added, and peroxidase-catalyzed color change was stopped by acidification with 2 NH2SO4. The plates were scanned at wavelength 450 nm and the absorbance were measured. The results are expressed as the mean concentration (pg/ml) ±SEM.
For IL-6 ELISA, rat anti-mouse monoclonal to IL-6 was used as capture antibody, and biotinylated rat anti-mouse monoclonal to IL-6 as detection antibody. The rest of procedure is identical to that of TNF-α ELISA.

[3] = test system: mice with traumatic brain injury; test: Closed head injury model of traumatic brain injury (rotorod, Morris Water Maze)
Experimental: C57Bl/6J male mice (The Jackson Laboratory, ME), 12-16 weeks of age and weighing 24-32 g, are used for all experiments. Anesthesia is first induced with isoflurane in 30% O2/balance N2. The trachea is intubated and the lungs mechanically ventilated with 1.6% isoflurane in 30% O2/balance N2. Temperature is monitored with a rectal probe and maintained at 36.5° C. with a heat lamp. The right internal jugular vein is cannulated with silicone catheter. […] Intubated animals are then placed prone on a molded acrylic cast (FIG. 6A). […] The scalp is incised and the skull exposed. A concave 3 mm metallic disc is secured to the skull surface (with the concave surface in juxtaposition to the skull) by an adhesive. […] The disc is placed directly midline just caudal to bregma (FIG. 6B). […] The mice are positioned in a stereotactic frame. Although the stereotactactic frame helps to stabilize the animal and exactly calibrate the vertical displacement on impact (3 mm), ear bars are not used due to a much higher rate of skull fracture (or brainstem injury if the head rotates around the axis of the ear bars during impact). The piston is discharged at 6.8±0.2 m/s so as to impact the skull in the acrylic mold to move a maximum of approximately 3 mm (FIG. 6C). Inspired isoflurane is decreased to 0.7% immediately after impact. The scalp was infiltrated with lidocaine and closed with suture. Ophthalmic ointment was applied to the eyes for protection. The incidence of skull fracture is low (approximately 10%), as the metal disk helps to diffuse the impact, and the absence of ear bar fixation allows for displacement of the entire head. Mice were excluded if a depressed skull fracture was observed (incidence of approximately 10%). The animals are allowed to recover spontaneous ventilation then extubated. […] In these mice, arterial blood pressure, blood gas and glucose measurement at baseline, immediately after injury, and 15 minutes after injury are monitored during the recovery period.
Briefly, baseline performance on rotorod is established before the mice are intubated, the skin over the scalp reflected and a controlled cortical impact from a pneumatic impactor given on the midline. The skin is closed with surgical clips and the animals are constantly monitored until awake from anesthesia and then hourly for the next 4 hours. […] Performance on rotorod is tested at 24 hours post impaction and then every day for 5 days and data is presented as described. Groups of 12 mice are used for each compound at 0.5×MTD. […] Novel peptides and non-peptide analogs are also given by tail vein injection.
Daily Rotarod (RR) testing was used to assess short term motor and cerebellar deficit following head injury (Hamm et al., 1994). Mice were held by their tails and placed on the RR facing the wall by using gentle swinging motion while running in a constant speed mode.

RAW 264.7 macrophages [4] = test system: RAW 264.7 macrophages
RAW 264.7 macrophages [5] = test: NO production and iNOS mRNA in C. rodentium-stimulated macrophages; assay type: cell-based, mouse
Description: RAW 264.7 cells were stimulated with French-pressed lysates of C. rodentium at a multiplicity of infection of 100. […] B, RT-PCR for iNOS.
We used bacterial lysates to more closely mimic the bacterial products to which lamina propria macrophages are likely to be exposed.

[6] = test system: mice receiving total body irradiation; details: cited from earlier work
[7] = biological target: cellular receptor bound by the apoE 133-149 peptide (on cells, 250,000 cells per well); test: competition with biotinylated apoE 133-149 for binding to whole cells (250,000 cells/well, 4 C), 125I-streptavidin detection

Q: Which results are given for CC(=O)N[C@@H](CC(C)C)C(=O)N[C@@H](CCCNC(=N)N)C(=O)N[C@H](C(=O)N[C@@H](CCCNC(=N)N)C(=O)N[C@@H](CC(C)C)C(=O)N[C@@H](C)C(=O)N[C@@H](CO)C(=O)N[C@@H](Cc1c[nH]cn1)C(=O)N[C@@H](CC(C)C)C(=O)N[C@@H](CCCNC(=N)N)C(=O)N[C@@H](CCCCN)C(=O)N[C@@H](CC(C)C)C(=O)N[C@@H](CCCNC(=N)N)C(=O)N[C@@H](CCCCN)C(=O)N[C@@H](CCCNC(=N)N)C(=O)N[C@@H](CC(C)C)C(=O)N[C@@H](CC(C)C)C(N)=O)C(C)C [COG133]?
A: Therapeutic Index (ratio of the MTD to the MED) (mice): 3.5; half-life (in vivo): 8 min; EC50 (BV2 microglial cells; read-out: EC50 (50% reduction of NO or TNFα release), LPS induced BV2 cells): 3500 nM; IC50 (BV2 microglial cells; read-out: IC50, inhibition of nitric oxide release, BV2 cells, LPS for 40 hours, approximate): ~2000 nM; Tolerability in mice with EAE [1]: well tolerated; IC50 ([2]; read-out: IC50 NO, 50% suppression of NO production, normalized on cell viability): 25000 nM

Q: With “Ac-RQIKIWFQNRRMKWKKLRVRLASHLRKLRKRLL-NH2 (N-terminus and C-terminus assumed) [COG4502]” as the molecule, how does the “Inhibition of cytokine production induced by MOG or LPS/IFN-γ” value (peritoneal macrophages) read?
A: significantly more powerful in inhibiting cytokine production

Q: And the “Production of NO, TNFα and IL-6 at 5 μM” value (peritoneal macrophages; 5 μM, MOG or LPS/IFN-γ)?
A: inhibited the production of NO, TNFα and IL-6 completely

Q: And the “TNFa and IL6 release from peritoneal macrophages” value (peritoneal macrophages; gamma interferon and LPS, 24 hours)?
A: dose dependent inhibition of TNFa release and a dose dependent inhibition of IL6 release

Q: What about the “Suppression of NO and/or TNFα release from LPS treated BV2 cells” value (BV2 microglial cells) of the same molecule?
A: much better than the COG133 parent

Q: And the IC50 (BV2 microglial cells; 40 h)?
A: ~10 nM

Q: What about the “Rotorod performance, conjugates given at varying times following TBI” value ([3]; FIG. 20: 90 minutes following TBI) of the same molecule?
A: can increase the therapeutic window of COG133

Q: And the “In vivo Therapeutic window time expanded?” value ([3]; mouse, in vivo)?
A: Yes; tested at 4 X

Q: And the “Concentration at which cell toxicity was noted” value (RAW 264.7 macrophages [4])?
A: 10 µM

Q: What about the “Concentration range where toxicity did not occur” value (RAW 264.7 macrophages [4]) of the same molecule?
A: 0.1 to 5 µM

Q: And the “NO production (nitrite levels) in macrophage supernatants” value (RAW 264.7 macrophages [5]; C. rodentium lysates, COG1410 2 μM, COG4502 0.1-5 μM)?
A: inhibition of NO production

Q: And the “iNOS mRNA expression” value (RAW 264.7 macrophages [5]; RT-PCR)?
A: significant, concentration-dependent inhibition of iNOS mRNA expression

Q: What about the IC50 [2] of the same molecule?
A: 700 nM

Q: And the “Increase in potency relative to COG133” value [2]?
A: 40 fold

Q: What about the “Suppression of LPS-stimulated nitrite secretion” value [2] of the same molecule?
A: significantly more potent than COG133

Q: What about the “Suppression of NO production at 25 μM” value ([2]; 25 μM) of the same molecule?
A: 100%

Q: What about the “Increase of efficacy of COG133 when conjugated to penetratin” value ([2]; FIG. 18 vs FIG. 16) of the same molecule?
A: about 100 fold

Q: And the IC50 ([2]; read-out: Dose for fifty percent suppression of LPS-stimulated nitrite secretion, FIG. 18)?
A: ~30 nM

Q: What about the IC50 ([2]; read-out: IC50 TNFα, in vitro) of the same molecule?
A: 1100 nM

Q: Which Dose reduction factor ([6]; 30 days post-irradiation, given immediately before irradiation (Hall 2000)) does the source give for NCCCNCCSP(=O)(O)O [amifostene, reference compound] here?
A: 2.7

B1: rIL11: rIL11 given to irradiated mice (Van der Meeren et al. 2002) (protein, UniProt P20809 22-199, looked up)
Interleukin-11: PGPPPGPPRVSPDPRAELDSTVLLTRSLLADTRQLAAQLRDKFPADGDHNLDSLPTLAMSAGALGALQLPGVLTRLRADLLSYLRHVQWLRRAGGSSLKTLEPELGTLQARLDRLLRRLQLLMSRLALPQPPPDPPAPPLAPPSSAWGGIRAAHAILGGLHLTLDWAVRGLLLLKTRL
Q: With B1 as the molecule, how does the “Survival rate at 30 days post-TBI” value ([6]; 8 Gy, 2 hour delay, every day for 5 days (Van der Meeren et al. 2002)) read?
A: 74%

B2: apoE 133-149 peptide (COG133), unlabeled (peptide)
peptide: LRVRLASHLRKLRKRLL
modifications: not fully specified
Q: For B2, which IC50 [7] is on record?
A: 4000 nM
